Source: patent US4316011A, “Rhodomycin antibiotics” (Sanraku-Ocean Co., Ltd., priority 1979, dated 1982)
Converted amounts (≈) assume the structure as drawn. Like-named read-outs stand apart in the source and are kept apart here.

Tests used:
[1] = tested on: murine leukemic L 1210 cells; test: Growth inhibition of L 1210 cells in culture; type: cell-based; details: for IC50: Mus musculus; for growth of murine leukemic cells (in words): murine leukemic L 1210 cells in culture
Method: (§1) In an example, L 1210 cells were inoculated in RPMI (Rosewell Park Memorial Institute) 1640 medium containing 20% calf serum at the cell density of 5×10^4 cells/ml, and the compound in the present invention was simultaneously added to the medium at the concentration of 0.1 and 0.5 μg/ml and incubated at 37° C. in a CO2 incubator. 50% growth inhibition concentration of the compound over controls was determined. L 1210 cells as described above were also inoculated at 5×10^5 cells in RPMI 1640 medium containing 10% calf serum and incubated at 37° C. for 1 to 2 hours in a CO2 incubator. The cells were cultured for 15 min. at 37° C. after the compounds according to the present invention at various concentrations were added, and then ^14 C-uridine (0.05 μCi/ml) or ^14 C-thymidine (0.05 μCi/ml) was added and incubated for further 60 min. at 37° C. After stopping the pulse-labeling by addition of 10% trichloroacetic acid (TCA) solution to the reaction mixture, acid-insoluble materials were precipitated, washed three times with 5 to 10% TCA, and dissolved in a small amount of formic acid. Then, radioactivity was determined, and inhibitory effects on the DNA and RNA biosynthesis were indicated by the 50% inhibition concentration (IC50) of the incorporation of radioactivity over controls.

[2] = tested on: DNA synthesis in murine leukemic L 1210 cells; test: DNA biosynthesis in L 1210 cells (14C-thymidine incorporation); type: cell-based; details: Mus musculus, L1210, 15 min with compound then 60 min 14C-thymidine, 37° C.
Method: as §1

[3] = tested on: RNA synthesis in murine leukemic L 1210 cells; test: RNA biosynthesis in L 1210 cells (14C-uridine incorporation); type: cell-based; details: for IC50: Mus musculus, L1210, 15 min with compound then 60 min 14C-uridine, 37° C.; for Inhibition ratio DNA/RNA: ratio of IC50 for DNA synthesis to IC50 for RNA synthesis
Method: 50% growth inhibition concentration of the compound over controls was determined. […] The cells were cultured for 15 min. at 37° C. after the compounds according to the present invention at various concentrations were added, and then ^14 C-uridine (0.05 μCi/ml) or ^14 C-thymidine (0.05 μCi/ml) was added and incubated for further 60 min. at 37° C. After stopping the pulse-labeling by addition of 10% trichloroacetic acid (TCA) solution to the reaction mixture, acid-insoluble materials were precipitated, washed three times with 5 to 10% TCA, and dissolved in a small amount of formic acid.

L 1210 leukemia = test: Antitumor effect on L 1210 leukemia in mice; type: in vivo, mice (CDF1); details: i.p., once daily for 10 days from 24 hours after inoculation of 1×10^6 L 1210 cells i.p.
Method: For example, when CDF1 mice weighing 18 to 22 grams were inoculated with 1×10^6 cells of L 1210 cells intraperitoneally and the compound was administered intraperitoneally once daily for 10 days consecutively 24 hours after inoculation, the survival time of mice was over 200% by T/C(%) at optimum dose as shown in the following table.

[4] = Acute toxicity in mice, single intravenous injection; details: mouse, in vivo
[5] = L1210, L 1210 cells, RPMI 1640, 20% calf serum, 5×10^4 cells/ml, 37° C., read-out: IC50 Growth

Compound	IC50 ([1]; L1210, read-out: IC50 Growth) [µg/mL]	growth of murine leukemic cells (in words) [1]	IC50 [2] [µg/mL]	RNA synthesis of L 1210 cells (in words) [3]	IC50 [3] [µg/mL]	Inhibition ratio DNA/RNA [3]	T/C (survival time) (L 1210 leukemia; opt. dose 2 mg/kg/day) [%]	LD50 [4] [mg/kg]	IC50 [1, 5] [µg/mL]	T/C (survival time) (L 1210 leukemia; opt. dose 1 mg/kg/day) [%]	T/C (survival time) (L 1210 leukemia; opt. dose 20 mg/kg/day) [%]
CCC1(O)CC(OC2CC(N(C)C)C(OC3CC(O)C(OC4CCC(=O)C(C)O4)C(C)O3)C(C)O2)c2c(O)c3c(c(O)c2C1C(=O)OC)C(=O)c1c(O)ccc(O)c1C3=O (stereo not shown) [ε-Isorhodomycin RDC]	0.007 (≈ 0.0083 µM)	suppressed the growth of murine leukemic cells at extremely low concentration	1.25 (≈ 1.48 µM)	inhibited specifically RNA synthesis of L 1210 cells	0.11 (≈ 0.13 µM)	11.1	235	28.2			
CCC1(O)CC(OC2CC(N(C)C)C(OC3CC(O)C(OC4CCC(=O)C(C)O4)C(C)O3)C(C)O2)c2c(O)c3c(c(O)c2C1O)C(=O)c1cccc(O)c1C3=O (stereo not drawn) [β-Rhodomycin RDC]		suppressed the growth of murine leukemic cells at extremely low concentration	0.57 (≈ 0.725 µM)		0.15 (≈ 0.191 µM)	3.8	306	28	0.01 (≈ 0.0127 µM)		
CCC1(O)CCc2c(O)c3c(c(O)c2C1OC1CC(N(C)C)C(OC2CC(O)C(OC4CCC(=O)C(C)O4)C(C)O2)C(C)O1)C(=O)c1cccc(O)c1C3=O (stereo not shown) [γ-Rhodomycin RDC]			0.85 (≈ 1.1 µM)		0.28 (≈ 0.364 µM)	3.0	209	39.8	0.11 (≈ 0.143 µM)		
COc1cccc2c1C(=O)c1c(O)c3c(c(O)c1C2=O)C[C@@](O)(C(=O)CO)C[C@@H]3O[C@H]1C[C@H](N)[C@H](O)[C@H](C)O1 [Adriamycin, reference compound]								14.2		286	
CCC1(O)CCc2c(O)c3c(c(O)c2C1OC1CC(N(C)C)C(OC2CC(O)C(OC4CCC(O)C(C)O4)C(C)O2)C(C)O1)C(=O)c1cccc(O)c1C3=O (stereo not shown) [γ-Rhodomycin RDRs]			0.7 (≈ 0.907 µM)		0.3 (≈ 0.389 µM)	2.3	203	40.6	0.09 (≈ 0.117 µM)		
CCC1(O)CC(OC2CC(N(C)C)C(OC3CC(O)C(OC4CCC(=O)C(C)O4)C(C)O3)C(C)O2)c2c(cc3c(c2O)C(=O)c2c(O)ccc(O)c2C3=O)C1O (stereo not drawn) [β-Pyrromycin RDC]			2 (≈ 2.55 µM)		1.5 (≈ 1.91 µM)	1.3		85.5	1 (≈ 1.27 µM)		202
CCC1(O)CC(OC2CC(N(C)C)C(OC3CC(O)C(OC4CCC(=O)C(C)O4)C(C)O3)C(C)O2)c2c(O)c3c(c(O)c2C1C(=O)OC)C(=O)c1cccc(O)c1C3=O (stereo not shown) [ε-Rhodomycin RDC]	0.01 (≈ 0.0121 µM)	suppressed the growth of murine leukemic cells at extremely low concentration	0.7 (≈ 0.846 µM)	inhibited specifically RNA synthesis of L 1210 cells	0.08 (≈ 0.0966 µM)	8.8	240	32.5			
